The source of these data is patent US11591323B2, “Muscarinic agonists as non-steroidal and non-opioid analgesics and methods of use thereof” (Barry University, priority 2019, dated 2023).

The test concerns rat aorta smooth muscle cells (mainly M2, lesser M3). Nature of the test: cAMP level in primary culture of rat aorta smooth muscle cells. The format is cell-based. As for the experimental part:
Effects of compounds 6A and 7A on both cAMP and IPX levels were also measured in primary cultures of rat aorta smooth muscle cells that express mainly M2 and to a lesser extent M3 receptors (FIG. 6). […] Receptor expression levels are far lower in tested native tissues than in transfected cell lines and vary among tissues, being highest in the striatum and lowest in the submaxillary gland. Relative expression levels of G-proteins are also known to vary among tissues and cell lines. Thus, it is great to see that the pharmacological profile of the new compounds is conserved despite these variations.
Cell culture and membrane preparation: Chinese hamster ovary (CHO) cells stably transfected with the genes of individual human variants of muscarinic receptors were purchased from Missouri S&T cDNA Resource Center (Rolla, Mo., USA). Fresh primary cell culture of smooth muscle cells (SMC) from rat aorta prepared as previously described was kindly provided by Dr. Lucie Bačáková. Primary culture of SMCs was grown to confluency in 75 cm^2 flasks in Dulbecco's modified Eagle's medium supplemented with 10% fetal bovine serum. Up to 6-times, 2 million of cells were sub-cultured. Cell cultures and crude membranes from CHO cells were prepared as described previously (Boulos et al., Chem Biol Drug Des 1-12, 2017). Cells were grown to confluency in 75 cm^2 flasks in Dulbecco's modified Eagle's medium supplemented with 10% fetal bovine serum and 2 million of cells were subcultured in 100 mm Petri dishes. Medium was supplemented with 5 mM butyrate for the last 24 hours of cultivation to increase receptor expression. When needed, cells were cultivated with pertussis toxin at a final concentration of 25 ng/ml for the 24 hours. Cells were detached by mild trypsinization on day 5 after subculture. Detached cells were washed twice in 50 ml of phosphate-buffered saline and 3 min centrifugation at 250×g. Washed cells were suspended in 20 ml of ice-cold incubation medium (100 mM NaCl, 20 mM Na-HEPES, 10 mM MgCl2, pH=7.4) supplemented with 10 mM EDTA and homogenized on ice by two 30 sec strokes using Polytron homogenizer (Ultra-Turrax; Janke & Kunkel GmbH & Co. KG, IKA-Labortechnik, Staufen, Germany) with a 30-sec pause between strokes. Cell homogenates were centrifuged for 30 min at 30,000×g. Supernatants were discarded, pellets suspended in fresh incubation medium, incubated on ice for 30 minutes and centrifuged again. Resulting membrane pellets were kept at −80° C. until assayed within 10 weeks at a maximum.
Measurements of the production of cAMP and inositol phosphates: Levels of second messengers cAMP and inositol phosphates were determined in radiochemical chromatography assays as described previously. To determine level of cAMP, cells in suspension were pre-incubated for 1 h with 0.4 μM [^3H]adenine, washed, and incubated for 10 min in the presence of isobutylmethylxanthine and 10 μM forskolin. […] Incubation was ended by addition of 0.2 ml of 2.5 M HCl to the samples. Samples were applied to alumina columns (1.5 g of alumina per column), washed with 2 ml ammonium acetate (pH=7.0) and eluted from columns with 4 ml ammonium acetate and measured by liquid scintillation spectrometry. […] For this purpose, new CHO cell lines stably expressing promiscuous G15 G-protein and M2 or M4 receptor were generated by transfection with pCMV/hygro vector and hygromycin selection. To determine the rate of formation of inositol phosphates IPX, suspended cells were pre-incubated with 0.1 μM [^3H]myo-inositol for 60 min, washed, and incubated with 10 mM LiCl for 15 min. […] The incubation was stopped by addition of 0.5 ml of chloroform methanol HCl mixture (2:1:0.1). […]

Structures are written as SMILES. Like-named read-outs stand apart in the source and are kept apart here.

As to `C1=CCN(Cc2cccs2)CC1.Cl` [Compound 6A, 1-[(thiophen-2-yl)methyl]-1,2,3,6-tetrahydropyridin-1-ium chloride], the “Maximal inhibition of cAMP synthesis” value is “about 40%”. Besides, where the note is “in words”, the “Maximal inhibition of cAMP synthesis” value is reported as “the same as inhibition by carbachol” and the cAMP level result is “only inhibited cAMP synthesis”.
In the case of `C[N+]1(Cc2cccs2)CC=CCC1.[I-]` (centres unmarked) [Compound 7A, 1-methyl-1-[(thiophen-2-yl)methyl]-1,2,3,6-tetrahydropyridin-1-ium iodide], the “Maximal inhibition of cAMP synthesis” value was “about 40%”. In addition, for the setting “in words”, the “Maximal inhibition of cAMP synthesis” value is “the same as inhibition by carbachol” and the cAMP level entry is reported as “only inhibited cAMP synthesis”.
With `C[N+](C)(C)CCOC(N)=O` [carbachol, reference compound], the “Maximal inhibition of cAMP synthesis” value was “about 40%”. For the same compound, the cAMP level result (in words) was “transient decrease in cAMP level”.
